According to patent US4845233A, “Imidazolin-2-ones” (IPRX, Inc., priority 1987, dated 1989):

Assays:
[1] = in vitro transdermal penetration of indomethacin from petrolatum ointment through shed snake skin, vertical diffusion cell; format: in vitro ADME, Elaphe obsoleta (black rat snake); settings: * 10% enhancer in ointment, slope relative to Azone = 100%
[2] = as above; format: in vitro ADME, Elaphe obsoleta (black rat snake); settings: for Relative Penetration: 5% enhancer in ointment, indomethacin, slope relative to Azone = 100%
Experimental: Ointments were prepared by mixing 1% indomethacin, 5% dermal penetration enhancer and 94% petrolatum at 55°-60° C. to give a homogeneous dispersion of indomethacin. In the cases where the enhancers are liquid the indomethacin and the enhancer were first mixed well and then followed by the incorporation of the petrolatum. The mixture was melted at 55°-60° C. and stirred until a homogeneous ointment was obtained. For low melting enhancers, the enhancer and the indomethacin were melted together and mixed in a water-bath followed by the incorporation of petrolatum. For high melting enhancers, it was necessary to mix the components in an agate mortar.
A whole shed snake skin from the molt of adult Elaphe obsoleta (black rat snake) was obtained from the Animal Care Unit of the University of Kansas. Only the dorsal side of the shed snake skin was used for in vitro penetration studies. The head and tail sections of the snake skin was removed and the remainder of the skin was cut randomly into sections of approximately 2 inches by 2 inches. Each piece of snake skin was hydrated overnight by first soaking the skin in water (about 5 to 10 min) until it could be stretched and then it was placed on a plastic pan which held some water. The pan was floated on a water-bath of 32° C. overnight.
Approximately 30 mg of ointment as prepared as described in Example 23 was smeared evenly on an area of the 2"×2" snake skin. The ointment was smeared into an essentially circular area approximately 1.77 cm^2 and having a diameter of approximately 15 mm. The snake skin was then mounted on top of the receptor cell of a verticle diffusion cell assembly in which a small magnetic bar was inserted and filled with an isotonic buffer. A rubber o-ring was placed on top of the skin followed by the placement of the donor cell. The two cells were clamped together and transferred to a water-bath (32° C.) which had several magnetic stirrers placed underneath to stir the contents of the diffusion cells. Samples from the cells were withdrawn periodically by gravity by inputing fresh isotonic buffer into the cells inlets. The first five drops were discarded and the following four drops were collected for analysis. These nine drops of sample solution were approximately equivalent to about 0.20 ml.
The samples were analyzed for the concentration of indomethacin using either a Spectroflow 783 programmable absorbance detector or a Perkin-Elmer ISS-100 HPLC apparatus with a Perkin-Elmer LC9 UV spectrophotometric detector and a Perkin-Elmer ISS-100 automatic sampler with the detection wavelength set at 260 nm. A reverse phase column, RP-8 Spheri-5, 4.6×100 mm and a guard tube OD-GU, purchased from Brownlee Labs, were used in conjunction with the HPLC system. The flow rate was 1.0 ml/min and the solvent system was a mixture of acetonitrile (50%) and a 0.01M phosphate buffer (pH 3.0) (50%).
The concentration in each sample was interpreted from a standard curve which was obtained by plotting the peak areas obtained from HPL chromatograms versus four different standard solutions of indomethacin. The standard curves were linear over a range of concentrations from 2.5 to 10 ug/ml. The receptor cell volume was calibrated by weighing the amount of water in the cell. The first sample needs no concentration correction. However, the concentration in the subsequent samples can be corrected by the following equation [formula] where xi is a member of microgram of indomethacin in the i^th sample. Also, the volume withdrawn for each sampling is about 0.20 ml. Yi is the concentration correction for i-1 sample.
The foregoing results were obtained by using 5% of the transdermal penetration enhancer in the ointment. […] Thus, Table III primarily reflects the transdermal penetration data of […] from ointments of 94% petrolatum and 5% enhancer. In Run No. 14, Azone was selected as the standard for comparison since it is claimed to be an excellent enhancer although it is too toxic. […]

Swiss white mice [3] = settings: mouse, in vivo, sc, 1000 mg/kg
Swiss white mice [4] = test: Chronic Toxicity Study, subcutaneous daily for 14 days; format: in vivo; settings: 1000 mg/Kg daily for 14 days
Experimental: The compound identified in Example 25 and represented as Run No. 3 in Table III, was also evaluated for chronic toxicity. Six Swiss white mice were injected subcutaneously at a dose of 1000 mg/Kg daily for 14 days. A sample dispersion of 400 mg/4.0 ml was prepared by dispersing the soft enhancer in a powder form in a 2% Tween 80 saline solution. The homogeneous dispersion was obtained by vortexing the material in a conical flask in which a plastic ball was placed. Sample dispersion was prepared alternative day in order to avoid serious contamination. Prior to injection the dispersion was shaken and withdrawn into a sterile graduated 1 cc TB syring (readable to 0.05 ml). Sterile hypodermic needles (25.4 mm) were required for injecting the dispersion. The control mice were injected an equivalent volume of the 2% Tween 80 suspension in saline. The suspension was prepared on an alternative day to avoid serious contamination. […] Two mice injected with the sample and one from the control were sacrificed and dissected for examination. For the control mouse, there was no obvious damage to the tissue and the internal organs. […] The mice were maintained for a period of 39 days during which time one mouse was sacrificed to check for the presence of the yellowish material.

[5] = intraperitoneal; cited from earlier work

Row | Compound | Relative Penetration [2] | further results
1 | CCCCCCCCCCCCCC(=O)OC(C)n1ccn(C)c1=O (centres unmarked) [compound 3] | 80-100% | Relative Penetration [1]: 50%; damage to internal organs and tissue at the injection site (dissection) (Swiss white mice [3]): no obvious damage to the internal organs and tissue at the injection site; damage to internal organs (dissection) (Swiss white mice [4]): no obvious damage to the internal organs was seen; injection site finding (dissection) (Swiss white mice [4]): a substantial amount of yellowish material was found on the injection site; yellowish material at injection site at follow-up (Swiss white mice [4]; after 39 days): The yellowish material disappeared after 39 days
2 | CCCCCCCCCCOC(=O)OCn1ccn(C)c1=O [Run No. 9] | 15% | 
3 | CCCCCCCCCCCC(=O)OCn1ccn(C)c1=O [Run No. 12, 1-Methyl-4-imidazolin-2-one-3-methylenedodecanoate] | 10% | Relative Penetration [1]: 20%
4 | 1-Methyl-4-imidazolin-2-one-3-propylenedodecanoate [Run No. 5] |  | penetration enhancement of indomethacin versus Azone (FIG. 1) ([2]; within the first 24 hours): well above that of the standard Azone
5 | CCCCCCCCCC(=O)OCn1ccn(C)c1=O [compound 11] | 10% | 
6 | CCCCCCCCCCCC(=O)OC(C)n1ccn(C)c1=O (centres unmarked) [compound 4] | 60% | Relative Penetration [1]: 40%
7 | CCCCCCCCCCCCCCOC(=O)OCn1ccn(C)c1=O [Run No. 10] | 10% | 
8 | CCCCCCCCCCCC(=O)OCCn1ccn(C)c1=O [compound 6] | 60% | 
9 | CCCCCCCCCCCCN1CCCCCC1=O [Azone, 1-Dodecylazacycloheptane-2-One, reference compound] | 100% | LD50 [5]: approximately 232 mg/kg
10 | CCCCCCCCCC(=O)OC(C)Cn1ccn(C)c1=O (centres unmarked) [compound 13] | 50% | 
11 | CCCCCCCCCCCCCC(=O)OC(C)n1ccn(CC)c1=O (stereo not drawn) [Run No. 7, 1-ethyl-4-imidazolin-2-one-3-α-ethyltetradecanoate] | 50% | 
12 | CCCCCCCCCCCC(=O)OC(C)Cn1ccn(C)c1=O (centres unmarked) [compound 1] | 120-200% | 
13 | CCCCCCCCCCCCCC(=O)OC(C)Cn1ccn(C)c1=O (centres unmarked) [compound 2] | 70% | 
14 | CCCCCCCCCCCCOC(=O)OCn1ccn(C)c1=O [compound 8] | 50% | 
15 | CCCCCCCCCCCC(=O)OCCCn1ccn(C)c1=O [compound 5] | 100% | 
